Source: article PMC9571063 (Molecules, 2022)
Like-named read-outs stand apart in the source and are kept apart here.

Key:
[1] = target: T1, TNK2 (Homo sapiens, UniProt Q07912); experiment: KINOMEscan; assay type: binding; conditions: read-out: Percent Control
T1 construct: purchased Eurofins DiscoverX KINOMEscan (scanMAX 468)

[2] = target: T2, CASK (Homo sapiens, UniProt O14936); experiment: KINOMEscan; assay type: binding; conditions: read-out: Percent Control
T2 construct: purchased Eurofins DiscoverX KINOMEscan (scanMAX 468)

[3] = target: T3, PKAC-alpha (Homo sapiens, UniProt P17612); experiment: KINOMEscan; assay type: binding; conditions: read-out: Percent Control
T3 construct: purchased Eurofins DiscoverX KINOMEscan (scanMAX 468)

[4] = target: T4, EPHB1 (Homo sapiens, UniProt P54762); experiment: KINOMEscan; assay type: binding; conditions: read-out: Percent Control
T4 construct: purchased Eurofins DiscoverX KINOMEscan (scanMAX 468)

[5] = target: T5, RIPK5 (Homo sapiens, UniProt Q6XUX3); experiment: KINOMEscan; assay type: binding; conditions: read-out: Percent Control
T5 construct: purchased Eurofins DiscoverX KINOMEscan (scanMAX 468)

[6] = target: T6, YANK3 (Homo sapiens, UniProt Q86UX6); experiment: KINOMEscan; assay type: binding; conditions: read-out: Percent Control
T6 construct: purchased Eurofins (KINOMEscan, DiscoverX)

[7] = target: T7, EGFR(L858R) (Homo sapiens, UniProt P00533, L858R); experiment: KINOMEscan; assay type: binding; conditions: read-out: Percent Control
T7 construct: purchased Eurofins DiscoverX KINOMEscan (scanMAX 468)

[8] = target: T8, FLT3(K663Q) (Homo sapiens, UniProt P36888, K663Q); experiment: KINOMEscan; assay type: binding; conditions: read-out: Percent Control
T8 construct: purchased Eurofins DiscoverX KINOMEscan (scanMAX 468)

[9] = target: T9, ROCK1 (Homo sapiens, UniProt Q13464); experiment: KINOMEscan; assay type: binding; conditions: read-out: Percent Control
T9 construct: purchased Eurofins DiscoverX KINOMEscan (scanMAX 468)

[10] = target: T10, CDC2L5 (Homo sapiens, UniProt Q14004); experiment: KINOMEscan; assay type: binding; conditions: read-out: Percent Control
T10 construct: purchased Eurofins DiscoverX KINOMEscan (scanMAX 468)

[11] = target: T11, ERK4 (Homo sapiens, UniProt P31152); experiment: KINOMEscan; assay type: binding; conditions: read-out: Percent Control
T11 construct: purchased Eurofins DiscoverX KINOMEscan (scanMAX 468)

[12] = target: T12, RIPK1 (Homo sapiens, UniProt Q13546); experiment: KINOMEscan; assay type: binding; conditions: read-out: Percent Control
T12 construct: purchased Eurofins DiscoverX KINOMEscan (scanMAX 468)

[13] = target: T13, FLT3-autoinhibited (Homo sapiens, UniProt P36888); experiment: KINOMEscan; assay type: binding; conditions: read-out: Percent Control
T13 construct: purchased Eurofins DiscoverX KINOMEscan (scanMAX 468)

[14] = target: T14, ZAP70 (Homo sapiens, UniProt P43403); experiment: KINOMEscan; assay type: binding; conditions: read-out: Percent Control
T14 construct: purchased Eurofins (KINOMEscan, DiscoverX)

[15] = target: T15, PDGFRB (Homo sapiens, UniProt P09619); experiment: KINOMEscan; assay type: binding; conditions: read-out: Percent Control
T15 construct: purchased Eurofins DiscoverX KINOMEscan (scanMAX 468)

[16] = tested on: MDA-MB-231; set-up: method as in ref 14 (a number printed in a supplementary file, which may have a reference list of its own: not looked up in the article's list); conditions: DB18[a], footnote not given; read-out: Cytotoxic studies IC50 MDA-MB-231; cited from earlier work
[17] = target: T16, FGFR2 (Homo sapiens, UniProt P21802); experiment: KINOMEscan; assay type: binding; conditions: read-out: Percent Control
T16 construct: purchased Eurofins DiscoverX KINOMEscan (scanMAX 468)

[18] = target: T17, PAK3 (Homo sapiens, UniProt O75914); experiment: KINOMEscan; assay type: binding; conditions: read-out: Percent Control
T17 construct: purchased Eurofins DiscoverX KINOMEscan (scanMAX 468)

[19] = target: T18, ULK1 (Homo sapiens, UniProt O75385); experiment: KINOMEscan; assay type: binding; conditions: read-out: Percent Control
T18 construct: purchased Eurofins DiscoverX KINOMEscan (scanMAX 468)

[20] = target: T19, MET (Homo sapiens, UniProt P08581); experiment: KINOMEscan; assay type: binding; conditions: read-out: Percent Control
T19 construct: purchased Eurofins DiscoverX KINOMEscan (scanMAX 468)

[21] = target: T20, DAPK2 (Homo sapiens, UniProt Q9UIK4); experiment: KINOMEscan; assay type: binding; conditions: read-out: Percent Control
T20 construct: purchased Eurofins DiscoverX KINOMEscan (scanMAX 468)

[22] = target: T21, MAPKAPK5 (Homo sapiens, UniProt Q8IW41); experiment: KINOMEscan; assay type: binding; conditions: read-out: Percent Control
T21 construct: purchased Eurofins DiscoverX KINOMEscan (scanMAX 468)

[23] = target: T22, RIPK2 (Homo sapiens, UniProt O43353); experiment: KINOMEscan; assay type: binding; conditions: read-out: Percent Control
T22 construct: purchased Eurofins DiscoverX KINOMEscan (scanMAX 468)

[24] = target: T23, Hs_HASPIN (Homo sapiens, UniProt Q8TF76); set-up: method as in ref 13 (a number printed in a supplementary file, which may have a reference list of its own: not looked up in the article's list); conditions: DB18, cited from earlier work
T23 construct: host or cells: bacteria
T23 sequence (Q8TF76 1-798): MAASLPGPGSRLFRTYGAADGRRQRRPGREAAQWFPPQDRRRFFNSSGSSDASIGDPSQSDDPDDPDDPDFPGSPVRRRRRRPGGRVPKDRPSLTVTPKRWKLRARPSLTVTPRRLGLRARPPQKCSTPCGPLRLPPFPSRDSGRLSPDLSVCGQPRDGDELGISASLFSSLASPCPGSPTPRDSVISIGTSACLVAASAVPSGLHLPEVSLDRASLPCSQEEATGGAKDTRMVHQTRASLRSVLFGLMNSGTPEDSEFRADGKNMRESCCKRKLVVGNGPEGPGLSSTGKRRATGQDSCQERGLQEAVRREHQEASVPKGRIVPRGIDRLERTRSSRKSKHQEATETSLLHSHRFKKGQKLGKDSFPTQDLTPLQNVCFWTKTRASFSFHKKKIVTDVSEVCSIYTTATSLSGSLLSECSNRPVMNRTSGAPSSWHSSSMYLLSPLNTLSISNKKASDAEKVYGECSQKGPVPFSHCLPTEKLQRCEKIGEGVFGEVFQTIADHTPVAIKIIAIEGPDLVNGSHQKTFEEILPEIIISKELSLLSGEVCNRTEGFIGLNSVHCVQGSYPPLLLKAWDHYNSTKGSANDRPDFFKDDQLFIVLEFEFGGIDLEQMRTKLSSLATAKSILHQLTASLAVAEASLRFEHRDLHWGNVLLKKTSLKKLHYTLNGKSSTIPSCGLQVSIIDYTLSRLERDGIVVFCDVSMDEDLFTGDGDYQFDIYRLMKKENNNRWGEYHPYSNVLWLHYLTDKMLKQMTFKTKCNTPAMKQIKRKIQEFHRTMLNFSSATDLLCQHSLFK

[25] = target: T24, EIF2AK1 (Homo sapiens, UniProt Q9BQI3); experiment: KINOMEscan; assay type: binding; conditions: read-out: Percent Control
T24 construct: purchased Eurofins DiscoverX KINOMEscan (scanMAX 468)

[26] = target: T25, MERTK (Homo sapiens, UniProt Q12866); experiment: KINOMEscan; assay type: binding; conditions: read-out: Percent Control
T25 construct: purchased Eurofins DiscoverX KINOMEscan (scanMAX 468)

[27] = target: T26, PCTK1 (Homo sapiens, UniProt Q00536); experiment: KINOMEscan; assay type: binding; conditions: read-out: Percent Control
T26 construct: purchased Eurofins DiscoverX KINOMEscan (scanMAX 468)

[28] = target: T27, TIE2 (Homo sapiens, UniProt Q02763); experiment: KINOMEscan; assay type: binding; conditions: read-out: Percent Control
T27 construct: purchased Eurofins DiscoverX KINOMEscan (scanMAX 468)

[29] = target: T28, NEK10 (Homo sapiens, UniProt Q6ZWH5); experiment: KINOMEscan; assay type: binding; conditions: read-out: Percent Control
T28 construct: purchased Eurofins DiscoverX KINOMEscan (scanMAX 468)

[30] = target: T29, PRKG2 (Homo sapiens, UniProt Q13237); experiment: KINOMEscan; assay type: binding; conditions: read-out: Percent Control
T29 construct: purchased Eurofins DiscoverX KINOMEscan (scanMAX 468)

[31] = target: T30, TRKB (Homo sapiens, UniProt Q16620); experiment: KINOMEscan; assay type: binding; conditions: read-out: Percent Control
T30 construct: purchased Eurofins DiscoverX KINOMEscan (scanMAX 468)

T24 sequence (Q9BQI3 whole entry): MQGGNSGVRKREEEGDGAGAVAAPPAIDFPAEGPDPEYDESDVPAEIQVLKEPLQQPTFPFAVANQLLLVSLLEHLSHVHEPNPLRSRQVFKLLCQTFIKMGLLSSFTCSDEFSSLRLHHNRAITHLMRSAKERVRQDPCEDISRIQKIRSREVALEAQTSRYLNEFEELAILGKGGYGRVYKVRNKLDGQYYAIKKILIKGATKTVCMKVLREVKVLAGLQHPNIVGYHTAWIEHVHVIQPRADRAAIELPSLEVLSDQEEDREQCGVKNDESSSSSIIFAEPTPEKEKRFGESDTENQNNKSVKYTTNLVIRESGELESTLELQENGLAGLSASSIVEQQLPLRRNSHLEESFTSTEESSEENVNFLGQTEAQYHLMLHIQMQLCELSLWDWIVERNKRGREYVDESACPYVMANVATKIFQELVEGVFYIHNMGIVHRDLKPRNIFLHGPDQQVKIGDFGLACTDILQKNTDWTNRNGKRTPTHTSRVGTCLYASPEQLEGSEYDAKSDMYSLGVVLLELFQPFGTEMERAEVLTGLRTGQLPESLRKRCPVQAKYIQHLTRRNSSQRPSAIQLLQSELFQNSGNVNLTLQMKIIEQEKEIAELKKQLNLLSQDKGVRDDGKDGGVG
T18 sequence (O75385 whole entry): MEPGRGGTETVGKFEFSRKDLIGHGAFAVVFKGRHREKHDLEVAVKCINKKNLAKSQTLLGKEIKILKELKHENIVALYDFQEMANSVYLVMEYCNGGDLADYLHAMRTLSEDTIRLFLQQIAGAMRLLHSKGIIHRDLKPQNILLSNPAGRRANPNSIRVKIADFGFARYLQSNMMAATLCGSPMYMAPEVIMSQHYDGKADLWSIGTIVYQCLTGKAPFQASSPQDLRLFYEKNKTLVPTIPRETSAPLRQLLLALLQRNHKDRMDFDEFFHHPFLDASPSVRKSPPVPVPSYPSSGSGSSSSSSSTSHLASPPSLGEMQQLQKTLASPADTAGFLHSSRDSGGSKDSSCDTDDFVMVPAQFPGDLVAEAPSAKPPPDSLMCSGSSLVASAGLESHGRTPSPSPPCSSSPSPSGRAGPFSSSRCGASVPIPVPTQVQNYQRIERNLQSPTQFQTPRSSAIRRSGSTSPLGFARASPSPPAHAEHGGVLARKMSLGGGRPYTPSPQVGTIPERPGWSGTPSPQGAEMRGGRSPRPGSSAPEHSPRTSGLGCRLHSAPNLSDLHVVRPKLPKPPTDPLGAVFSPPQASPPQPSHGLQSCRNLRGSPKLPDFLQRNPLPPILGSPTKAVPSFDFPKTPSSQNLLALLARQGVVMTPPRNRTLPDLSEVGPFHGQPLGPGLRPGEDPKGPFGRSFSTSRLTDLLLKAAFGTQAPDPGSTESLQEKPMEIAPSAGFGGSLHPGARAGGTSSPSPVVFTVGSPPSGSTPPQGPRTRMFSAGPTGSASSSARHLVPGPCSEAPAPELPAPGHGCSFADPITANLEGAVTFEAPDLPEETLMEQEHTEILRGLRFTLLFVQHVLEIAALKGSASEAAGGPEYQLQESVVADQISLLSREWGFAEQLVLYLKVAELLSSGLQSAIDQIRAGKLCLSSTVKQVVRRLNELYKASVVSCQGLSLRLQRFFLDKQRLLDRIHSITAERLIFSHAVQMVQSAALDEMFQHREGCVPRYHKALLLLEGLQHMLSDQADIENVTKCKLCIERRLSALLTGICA
T5 sequence (Q6XUX3 whole entry): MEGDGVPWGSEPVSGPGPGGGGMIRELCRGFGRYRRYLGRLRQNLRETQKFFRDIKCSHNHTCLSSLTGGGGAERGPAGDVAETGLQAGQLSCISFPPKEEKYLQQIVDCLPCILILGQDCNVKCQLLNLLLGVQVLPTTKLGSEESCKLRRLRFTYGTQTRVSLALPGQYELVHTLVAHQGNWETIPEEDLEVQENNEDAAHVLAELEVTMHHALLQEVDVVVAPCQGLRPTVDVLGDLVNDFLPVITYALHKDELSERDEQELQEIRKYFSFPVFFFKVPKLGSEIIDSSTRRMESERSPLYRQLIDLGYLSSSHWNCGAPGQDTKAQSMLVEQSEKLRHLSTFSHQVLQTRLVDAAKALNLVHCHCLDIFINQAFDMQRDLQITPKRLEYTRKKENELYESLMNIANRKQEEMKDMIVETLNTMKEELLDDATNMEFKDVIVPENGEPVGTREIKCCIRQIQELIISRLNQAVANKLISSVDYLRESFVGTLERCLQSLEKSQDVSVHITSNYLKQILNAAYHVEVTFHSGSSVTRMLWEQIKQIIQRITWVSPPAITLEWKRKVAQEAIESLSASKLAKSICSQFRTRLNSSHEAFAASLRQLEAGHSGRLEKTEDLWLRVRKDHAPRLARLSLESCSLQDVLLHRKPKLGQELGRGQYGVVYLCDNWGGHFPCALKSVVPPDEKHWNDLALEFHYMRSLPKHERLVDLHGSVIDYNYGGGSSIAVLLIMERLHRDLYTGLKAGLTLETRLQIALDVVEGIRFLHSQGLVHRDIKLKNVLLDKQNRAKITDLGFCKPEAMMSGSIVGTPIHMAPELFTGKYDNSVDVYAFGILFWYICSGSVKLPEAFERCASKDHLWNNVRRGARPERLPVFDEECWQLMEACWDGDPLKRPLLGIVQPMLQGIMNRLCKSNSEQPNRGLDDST
T11 sequence (P31152 whole entry): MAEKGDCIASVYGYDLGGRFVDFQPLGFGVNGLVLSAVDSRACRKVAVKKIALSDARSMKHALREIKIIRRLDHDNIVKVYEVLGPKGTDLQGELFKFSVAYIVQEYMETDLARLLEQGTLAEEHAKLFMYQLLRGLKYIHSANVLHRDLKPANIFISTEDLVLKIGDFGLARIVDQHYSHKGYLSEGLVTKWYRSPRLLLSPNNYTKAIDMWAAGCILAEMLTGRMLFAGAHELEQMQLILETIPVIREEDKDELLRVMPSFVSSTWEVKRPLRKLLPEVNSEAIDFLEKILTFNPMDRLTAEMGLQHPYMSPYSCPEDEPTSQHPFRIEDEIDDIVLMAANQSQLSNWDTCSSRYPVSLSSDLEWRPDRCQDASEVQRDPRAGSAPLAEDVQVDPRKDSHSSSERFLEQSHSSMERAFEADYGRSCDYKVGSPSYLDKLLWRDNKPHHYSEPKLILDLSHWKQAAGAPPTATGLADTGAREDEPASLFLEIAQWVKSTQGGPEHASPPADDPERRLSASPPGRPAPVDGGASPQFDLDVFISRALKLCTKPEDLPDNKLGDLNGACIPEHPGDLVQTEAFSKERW
T10 sequence (Q14004 whole entry): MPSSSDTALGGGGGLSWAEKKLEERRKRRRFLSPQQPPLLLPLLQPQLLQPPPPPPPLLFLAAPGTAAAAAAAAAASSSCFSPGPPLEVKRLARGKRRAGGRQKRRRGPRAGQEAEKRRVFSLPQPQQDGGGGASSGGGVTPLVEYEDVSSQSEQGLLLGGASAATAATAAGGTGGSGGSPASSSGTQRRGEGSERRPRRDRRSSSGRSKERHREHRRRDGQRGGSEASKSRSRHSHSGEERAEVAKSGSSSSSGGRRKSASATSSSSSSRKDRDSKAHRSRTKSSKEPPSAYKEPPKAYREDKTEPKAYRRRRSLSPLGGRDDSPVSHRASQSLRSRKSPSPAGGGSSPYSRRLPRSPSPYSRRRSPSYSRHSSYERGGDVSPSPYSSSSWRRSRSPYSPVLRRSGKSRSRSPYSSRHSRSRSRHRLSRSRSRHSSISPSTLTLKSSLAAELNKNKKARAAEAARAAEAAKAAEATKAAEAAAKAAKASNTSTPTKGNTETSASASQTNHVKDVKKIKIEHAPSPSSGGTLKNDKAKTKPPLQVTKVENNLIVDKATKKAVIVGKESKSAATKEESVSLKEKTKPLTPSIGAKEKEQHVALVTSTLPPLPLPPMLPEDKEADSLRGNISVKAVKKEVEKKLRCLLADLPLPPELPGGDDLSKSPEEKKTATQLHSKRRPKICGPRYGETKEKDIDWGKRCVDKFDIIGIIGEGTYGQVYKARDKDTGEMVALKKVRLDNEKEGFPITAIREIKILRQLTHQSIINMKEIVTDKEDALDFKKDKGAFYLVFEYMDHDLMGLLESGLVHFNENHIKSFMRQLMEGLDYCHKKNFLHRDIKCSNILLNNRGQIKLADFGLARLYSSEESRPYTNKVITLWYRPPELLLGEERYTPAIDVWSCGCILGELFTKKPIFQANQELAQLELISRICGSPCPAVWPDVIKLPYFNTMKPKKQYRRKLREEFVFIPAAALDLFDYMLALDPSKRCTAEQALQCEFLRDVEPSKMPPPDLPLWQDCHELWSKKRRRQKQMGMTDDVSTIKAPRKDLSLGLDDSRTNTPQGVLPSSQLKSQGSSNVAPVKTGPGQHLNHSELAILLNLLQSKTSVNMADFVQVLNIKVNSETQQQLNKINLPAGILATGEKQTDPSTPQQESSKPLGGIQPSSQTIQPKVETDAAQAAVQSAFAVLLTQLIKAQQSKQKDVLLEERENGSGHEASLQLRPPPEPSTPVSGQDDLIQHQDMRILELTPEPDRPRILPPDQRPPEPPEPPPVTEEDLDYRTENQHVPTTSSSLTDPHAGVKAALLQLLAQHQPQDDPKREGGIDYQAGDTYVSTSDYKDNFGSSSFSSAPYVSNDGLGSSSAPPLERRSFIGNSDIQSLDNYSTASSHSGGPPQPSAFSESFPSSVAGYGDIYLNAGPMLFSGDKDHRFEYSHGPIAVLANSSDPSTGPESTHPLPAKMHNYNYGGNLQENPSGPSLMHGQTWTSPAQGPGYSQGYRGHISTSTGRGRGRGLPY
T20 sequence (Q9UIK4 whole entry): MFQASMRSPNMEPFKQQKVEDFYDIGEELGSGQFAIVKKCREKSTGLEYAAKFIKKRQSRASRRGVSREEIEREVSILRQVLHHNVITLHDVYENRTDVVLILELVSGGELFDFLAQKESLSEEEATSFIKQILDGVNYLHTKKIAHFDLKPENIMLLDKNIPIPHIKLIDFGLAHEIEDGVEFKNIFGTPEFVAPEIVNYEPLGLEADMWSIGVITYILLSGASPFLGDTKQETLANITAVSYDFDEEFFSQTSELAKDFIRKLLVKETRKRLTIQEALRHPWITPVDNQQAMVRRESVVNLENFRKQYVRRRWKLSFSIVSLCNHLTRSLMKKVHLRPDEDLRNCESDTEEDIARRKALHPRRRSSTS

Molecule `Cc1ccc(-n2cc(COc3cccc4cnc(Nc5cccc(Cl)c5)nc34)nn2)c([N+](=O)[O-])c1` [DB18] has a remaining binding at 1 µM [1] of 100%, a remaining binding at 1 µM [2] of 99% and a remaining binding at 1 µM [3] of 100%. For the same molecule, the remaining binding at 1 µM [4] was 100%, the remaining binding at 1 µM [5] was 100% and the remaining binding at 1 µM [6] was 100%. For the same molecule, the remaining binding at 1 µM [7] was 94%, the remaining binding at 1 µM [8] was 69% and the remaining binding at 1 µM [9] was 100%. The remaining binding at 1 µM [10] was 100%, the remaining binding at 1 µM [11] was 100% and the remaining binding at 1 µM [12] was 100%. It also gave a remaining binding at 1 µM [13] of 100%, a remaining binding at 1 µM [14] of 100% and a remaining binding at 1 µM [15] of 100%. The IC50 [16] was > 25 µM, the remaining binding at 1 µM [17] was 100% and the remaining binding at 1 µM [18] was 100%. For the same molecule, the remaining binding at 1 µM [19] was 100%, the remaining binding at 1 µM [20] was 95% and the remaining binding at 1 µM [21] was 100%. For the same molecule, the remaining binding at 1 µM [22] was 99%, the remaining binding at 1 µM [23] was 98% and the “% of residual activity Hs_HASPIN” value ([24]; 1 µM) was 96%. The “% of residual activity Hs_HASPIN” value ([24]; 10 µM) was 94%, the remaining binding at 1 µM [25] was 100% and the remaining binding at 1 µM [26] was 100%. It also gave a remaining binding at 1 µM [27] of 94%, a remaining binding at 1 µM [28] of 100% and a remaining binding at 1 µM [29] of 100%. For the same molecule, the remaining binding at 1 µM [30] was 100% and the remaining binding at 1 µM [31] was 86%.
